The target of test [1] is T1, maize (Zea mays) class I EPSPS variant TIPA (T102I, P106A), pMON42481, ZmTIPA SEQ ID NO:39 (Zea mays, UniProt O24566, P106A/T102I).
T1 construct: pMON42481
T1 sequence (O24566 1-444 T102I/P106A): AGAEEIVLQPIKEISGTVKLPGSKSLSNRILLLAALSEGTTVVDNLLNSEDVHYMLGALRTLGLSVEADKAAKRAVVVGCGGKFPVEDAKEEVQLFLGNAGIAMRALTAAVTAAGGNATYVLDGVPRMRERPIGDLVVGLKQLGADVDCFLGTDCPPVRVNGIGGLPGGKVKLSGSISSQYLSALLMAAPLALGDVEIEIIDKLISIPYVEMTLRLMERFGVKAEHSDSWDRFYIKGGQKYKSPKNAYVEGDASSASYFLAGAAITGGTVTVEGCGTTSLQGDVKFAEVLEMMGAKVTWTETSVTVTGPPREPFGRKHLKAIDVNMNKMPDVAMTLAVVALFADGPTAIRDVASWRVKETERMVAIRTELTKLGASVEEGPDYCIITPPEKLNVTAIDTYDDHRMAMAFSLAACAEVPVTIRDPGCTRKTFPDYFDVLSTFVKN
Kind of test: EPSPS steady-state kinetics, TIPA variant. Format: biochemical. From the text:
(§1) The double variants of the present invention were made using pMON58452 (FIG. 5) as the template. This pMON58452 EPSPS gene template contains the maize EPSPS double variant T102I, P106T (TIPT) that was constructed by mutagenesis of pMON70467 with the mutagenesis primers mEmut-9-U and mEmut-10-L. The various mutagenesis primer sequences were designed and then were synthesized by Invitrogen Corp., Custom Primers and used in combination in a PCR to create the variant EPSPS coding sequences. The PCR was set up in a 50 μl reaction in the following manner: dH2O 38 μl; 2 mM dNTP 1 μL; 10× buffer 5 μL; pMON58452 1 μL (10 ng); primer-U 2 μL; primer-L 2 μL; pfu Turbo enzyme 1 μL. PCR was carried out on a MJ Research PTC-200 thermal cycler using the following program: Step 1—94° C. for 30 seconds; Step 2—94° C. for 30 seconds; Step 3—55° C. for 1 minute; Step 4—68° C. for 14 minute; Step 5—go to step 2, 16 times; Step 6—End. At the end of the PCR, 1 μl of the restriction enzyme DpnI was added to each 50 μl of PCR reaction and the mixture was incubated at 37° C. for 1 hour. […]

Test [2] addresses T2, maize (Zea mays) class I EPSPS variant TIPM (T102I, P106M), pMON42484 (Zea mays, UniProt O24566, P106M/T102I).
T2 construct: pMON42484
T2 sequence (O24566 1-444 T102I/P106M): T1 sequence (O24566 1-444 T102I/P106A) with A106M
Kind of test: EPSPS steady-state kinetics, TIPM variant. It counts as biochemical.
Excerpt: as §1

Numbering of substitutions follows the chain as printed.

As for `O=C(O)CNCP(=O)(O)O` [glyphosate, N-phosphonomethylglycine], the Ki turned out to be 0.148 ± 0.0183 mM in test [1] and 37.2 ± 1.5 mM in test [2].

The record behind these values is patent US8436159B2, “Glyphosate resistant class I 5-endolpyruvylshikimate-3-phosphate synthase (EPSPS)” (Monsanto Technology LLC, priority 2003, dated 2013).
